Test in all cases: Kinase profiling screen (radioactive filter-binding assay)
Common to all, as to format: biochemical

One assay deals with JAK2 (Homo sapiens, UniProt O60674). The following applies: 100 μM compound, 5 μM ATP; read-out: Kinase activity, % of activity in the absence of inhibitor. The procedure, abridged:
(§1)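 Single-point in vitro screen: 100 μM final of CoA, dpCoA and ADP, run in duplicate against recombinant kinase with a model substrate and optimal ATP.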

In the next assay the target is T1, EPH-B2 (Homo sapiens, UniProt P29323).
T1 sequence (P29323 19-1055): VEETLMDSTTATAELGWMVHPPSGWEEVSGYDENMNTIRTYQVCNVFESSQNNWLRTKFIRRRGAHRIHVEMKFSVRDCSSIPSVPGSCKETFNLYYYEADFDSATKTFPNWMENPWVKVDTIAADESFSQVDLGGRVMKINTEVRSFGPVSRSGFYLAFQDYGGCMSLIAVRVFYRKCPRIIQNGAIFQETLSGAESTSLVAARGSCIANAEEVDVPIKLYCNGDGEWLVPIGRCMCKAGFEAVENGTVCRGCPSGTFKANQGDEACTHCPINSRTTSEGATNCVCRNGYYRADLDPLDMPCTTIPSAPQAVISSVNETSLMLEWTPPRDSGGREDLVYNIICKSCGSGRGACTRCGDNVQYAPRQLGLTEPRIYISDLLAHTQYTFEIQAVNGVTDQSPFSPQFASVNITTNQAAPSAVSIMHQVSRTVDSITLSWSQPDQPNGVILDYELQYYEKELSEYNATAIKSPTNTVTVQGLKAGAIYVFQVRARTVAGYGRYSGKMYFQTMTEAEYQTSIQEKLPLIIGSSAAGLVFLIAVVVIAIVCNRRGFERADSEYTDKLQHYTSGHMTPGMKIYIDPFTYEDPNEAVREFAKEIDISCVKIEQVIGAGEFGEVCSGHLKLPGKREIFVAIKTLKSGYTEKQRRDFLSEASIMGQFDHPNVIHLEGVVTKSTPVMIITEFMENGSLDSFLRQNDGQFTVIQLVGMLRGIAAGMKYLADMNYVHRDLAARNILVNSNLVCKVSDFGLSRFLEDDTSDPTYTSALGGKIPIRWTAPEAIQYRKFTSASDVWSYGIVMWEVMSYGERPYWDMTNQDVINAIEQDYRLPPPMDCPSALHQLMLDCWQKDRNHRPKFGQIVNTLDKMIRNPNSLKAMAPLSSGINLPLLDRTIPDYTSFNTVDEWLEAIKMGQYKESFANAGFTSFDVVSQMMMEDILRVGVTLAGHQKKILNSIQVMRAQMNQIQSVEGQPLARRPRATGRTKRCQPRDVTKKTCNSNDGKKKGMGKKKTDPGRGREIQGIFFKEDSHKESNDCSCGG
The note with it: 100 μM compound, 20 μM ATP; read-out: Kinase activity, % of activity in the absence of inhibitor. The procedure, abridged: as §1

The next assay deals with CSK (Homo sapiens, UniProt P41240). The note with it: 100 μM compound, 20 μM ATP; read-out: Kinase activity, % of activity in the absence of inhibitor. The procedure, abridged: as §1
In the next assay the target is T2, ERK8 (Homo sapiens, UniProt Q8TD08).
T2 sequence (Q8TD08 1-544): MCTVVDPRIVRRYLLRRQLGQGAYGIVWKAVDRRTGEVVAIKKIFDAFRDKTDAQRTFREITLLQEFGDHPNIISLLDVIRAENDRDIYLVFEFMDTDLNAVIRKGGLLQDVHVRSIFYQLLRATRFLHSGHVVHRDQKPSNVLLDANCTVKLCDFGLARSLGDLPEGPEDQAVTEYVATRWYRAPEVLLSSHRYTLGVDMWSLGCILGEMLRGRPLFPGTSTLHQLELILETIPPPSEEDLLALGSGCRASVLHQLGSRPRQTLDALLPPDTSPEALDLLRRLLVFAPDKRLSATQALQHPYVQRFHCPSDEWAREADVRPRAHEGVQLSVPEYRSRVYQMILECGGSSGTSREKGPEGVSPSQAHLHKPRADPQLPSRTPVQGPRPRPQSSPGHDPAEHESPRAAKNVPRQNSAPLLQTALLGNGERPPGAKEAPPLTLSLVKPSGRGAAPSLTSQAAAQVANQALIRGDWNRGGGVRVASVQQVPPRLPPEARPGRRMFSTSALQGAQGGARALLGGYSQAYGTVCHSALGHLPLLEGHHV
The following applies: 100 μM compound, 5 μM ATP; read-out: Kinase activity, % of activity in the absence of inhibitor. The procedure, abridged: as §1

In the next assay the target is T3, PRAK (Homo sapiens, UniProt Q8IW41).
T3 sequence (Q8IW41 1-473): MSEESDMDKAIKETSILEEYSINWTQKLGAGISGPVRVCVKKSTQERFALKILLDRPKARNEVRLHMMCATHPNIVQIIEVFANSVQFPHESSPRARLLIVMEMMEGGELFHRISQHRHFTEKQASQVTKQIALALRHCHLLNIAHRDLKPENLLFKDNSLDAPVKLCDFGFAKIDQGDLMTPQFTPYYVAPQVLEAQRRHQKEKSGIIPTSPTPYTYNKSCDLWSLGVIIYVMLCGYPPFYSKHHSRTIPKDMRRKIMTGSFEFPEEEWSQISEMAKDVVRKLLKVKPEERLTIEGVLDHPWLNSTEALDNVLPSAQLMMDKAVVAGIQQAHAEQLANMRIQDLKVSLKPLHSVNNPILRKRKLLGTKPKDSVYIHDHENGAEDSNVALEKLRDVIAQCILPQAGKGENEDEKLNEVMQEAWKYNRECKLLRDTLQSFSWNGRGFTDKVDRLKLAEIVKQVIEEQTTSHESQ
The following applies: 100 μM compound, 20 μM ATP; read-out: Kinase activity, % of activity in the absence of inhibitor. In outline: as §1

Another assay concerns the target CK1δ (Homo sapiens, UniProt P48730). The note with it: 100 μM compound, 20 μM ATP; read-out: Kinase activity, % of activity in the absence of inhibitor. The procedure, abridged: as §1
A further assay has as its target T4, p38δ MAPK (Homo sapiens, UniProt O15264).
T4 sequence (O15264 1-365): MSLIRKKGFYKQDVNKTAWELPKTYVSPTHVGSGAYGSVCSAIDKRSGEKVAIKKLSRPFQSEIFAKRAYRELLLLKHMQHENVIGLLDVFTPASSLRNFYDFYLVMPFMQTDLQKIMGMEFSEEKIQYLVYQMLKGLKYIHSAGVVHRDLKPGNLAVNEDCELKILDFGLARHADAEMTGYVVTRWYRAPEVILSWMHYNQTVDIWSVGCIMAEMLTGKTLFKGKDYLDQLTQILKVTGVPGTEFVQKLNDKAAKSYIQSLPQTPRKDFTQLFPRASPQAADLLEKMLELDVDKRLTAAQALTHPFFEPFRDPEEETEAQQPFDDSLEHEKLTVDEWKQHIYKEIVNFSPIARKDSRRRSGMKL
The note with it: 100 μM compound, 5 μM ATP; read-out: Kinase activity, % of activity in the absence of inhibitor. In outline: as §1

Chain of CK1δ (P48730 whole entry): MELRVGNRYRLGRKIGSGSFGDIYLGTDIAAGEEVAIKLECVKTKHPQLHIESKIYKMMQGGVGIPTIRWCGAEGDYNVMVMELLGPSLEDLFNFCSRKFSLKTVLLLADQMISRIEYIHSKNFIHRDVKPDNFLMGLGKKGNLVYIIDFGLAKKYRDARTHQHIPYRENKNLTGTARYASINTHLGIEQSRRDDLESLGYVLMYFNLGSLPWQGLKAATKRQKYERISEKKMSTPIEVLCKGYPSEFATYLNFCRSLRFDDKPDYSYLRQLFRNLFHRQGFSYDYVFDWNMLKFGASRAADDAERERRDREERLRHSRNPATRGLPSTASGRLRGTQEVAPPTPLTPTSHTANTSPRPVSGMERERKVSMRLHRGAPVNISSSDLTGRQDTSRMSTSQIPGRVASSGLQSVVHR
Chain of JAK2 (O60674 whole entry): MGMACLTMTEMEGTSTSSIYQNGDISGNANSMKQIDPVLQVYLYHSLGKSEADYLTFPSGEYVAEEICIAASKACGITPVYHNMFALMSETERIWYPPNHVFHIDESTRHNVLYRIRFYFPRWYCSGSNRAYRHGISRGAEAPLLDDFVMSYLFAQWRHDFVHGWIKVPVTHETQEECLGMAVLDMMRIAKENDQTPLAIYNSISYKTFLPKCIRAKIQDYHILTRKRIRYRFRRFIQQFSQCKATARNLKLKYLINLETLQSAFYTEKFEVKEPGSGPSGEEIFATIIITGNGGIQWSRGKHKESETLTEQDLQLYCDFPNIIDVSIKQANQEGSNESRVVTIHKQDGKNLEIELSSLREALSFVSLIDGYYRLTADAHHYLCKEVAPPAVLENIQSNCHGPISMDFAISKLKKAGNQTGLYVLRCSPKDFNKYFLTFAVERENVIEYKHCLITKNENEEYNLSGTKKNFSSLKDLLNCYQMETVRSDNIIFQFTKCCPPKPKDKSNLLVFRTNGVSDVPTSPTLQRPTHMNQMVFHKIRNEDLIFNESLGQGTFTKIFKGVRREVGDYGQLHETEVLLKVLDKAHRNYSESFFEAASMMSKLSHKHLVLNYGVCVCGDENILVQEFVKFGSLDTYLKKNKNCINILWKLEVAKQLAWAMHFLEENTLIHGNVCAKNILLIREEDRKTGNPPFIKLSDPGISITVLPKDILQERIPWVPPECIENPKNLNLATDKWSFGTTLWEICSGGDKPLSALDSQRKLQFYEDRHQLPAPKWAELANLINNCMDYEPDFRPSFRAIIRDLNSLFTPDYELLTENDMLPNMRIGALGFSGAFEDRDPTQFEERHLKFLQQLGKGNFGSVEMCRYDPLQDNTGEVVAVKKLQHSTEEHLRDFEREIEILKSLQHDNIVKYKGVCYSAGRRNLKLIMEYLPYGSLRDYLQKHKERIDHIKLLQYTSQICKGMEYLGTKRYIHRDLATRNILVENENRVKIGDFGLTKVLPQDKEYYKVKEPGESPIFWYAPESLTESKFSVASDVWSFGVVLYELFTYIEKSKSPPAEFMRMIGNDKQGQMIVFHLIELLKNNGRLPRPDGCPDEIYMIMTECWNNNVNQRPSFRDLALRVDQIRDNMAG
Chain of CSK (P41240 whole entry): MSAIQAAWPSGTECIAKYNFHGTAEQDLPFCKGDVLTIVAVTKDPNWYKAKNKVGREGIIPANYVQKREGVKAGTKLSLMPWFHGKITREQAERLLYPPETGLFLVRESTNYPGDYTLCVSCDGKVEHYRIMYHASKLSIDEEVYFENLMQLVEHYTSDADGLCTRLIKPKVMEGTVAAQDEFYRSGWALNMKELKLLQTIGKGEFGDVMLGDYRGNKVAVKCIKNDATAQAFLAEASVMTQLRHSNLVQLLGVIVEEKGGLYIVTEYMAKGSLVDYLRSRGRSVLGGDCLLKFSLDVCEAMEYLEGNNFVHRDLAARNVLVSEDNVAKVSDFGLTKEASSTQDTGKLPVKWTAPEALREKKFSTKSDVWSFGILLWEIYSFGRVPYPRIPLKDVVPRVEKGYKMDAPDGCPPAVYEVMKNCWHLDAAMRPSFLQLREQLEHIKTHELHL

For `Nc1ncnc2c1ncn2C1OC(COP(=O)(O)OP(=O)(O)O)C(O)C1O` (stereo not drawn) [ADP], the activity at 100 µM on JAK2 came out at 7.1%; at EPH-B2 it was 14.3%; on CSK, 18.5%; on ERK8, 16.6%; on PRAK, 15.2%; on CK1δ it was 57.6%. The activity at 100 µM at p38δ MAPK was determined as 37.3%.
In the case of `CC(C)(COP(=O)(O)OP(=O)(O)OC[C@H]1O[C@@H](n2cnc3c(N)ncnc32)[C@H](O)[C@@H]1OP(=O)(O)O)[C@@H](O)C(=O)NCCC(=O)NCCS` [CoA, Coenzyme A], the activity at 100 µM on JAK2 worked out at 106%; at EPH-B2 it was 117%; at CSK, 92.6%; at ERK8 it was 101%; on PRAK it was 99.7%; at CK1δ, 80.8%. On p38δ MAPK, the activity at 100 µM worked out at 128%.
Take `CC(C)(COP(=O)(O)OP(=O)(O)OCC1OC(n2cnc3c(N)ncnc32)C(O)C1O)C(O)C(=O)NCCC(=O)NCCS` (stereo not drawn) [dpCoA, dephospho-CoA]: the activity at 100 µM was found to be 62.5% at JAK2; 91.1% at EPH-B2; 54.9% at CSK; 38.5% on ERK8; 77.7% at PRAK; 80.4% on CK1δ. On p38δ MAPK, the activity at 100 µM was 71.3%.

Source of the values: publication PMC6812009, “Covalent Aurora A regulation by the metabolic integrator coenzyme A” (Redox Biology, 2019).
